In ChEMBL document CHEMBL5104111, “Boron-Containing heterocycles as promising pharmacological agents” (Bioorg Med Chem, 2022):
≈ marks a conversion by molar mass, not a printed value.

What was measured:
Plasmodium falciparum [1] = experiment: Antimalarial activity against Plasmodium falciparum 3D7 assessed as parasite growth inhibition; assay type: functional, organism-based
Plasmodium falciparum [2] = experiment: Antimalarial activity against Plasmodium falciparum W2 assessed as parasite growth inhibition; assay type: functional, organism-based
LN-229 = experiment: Anticancer activity against human LN-229 cells assessed as cell growth inhibition by trypan blue exclusion assay; assay type: functional, cell-based
[3] = tested on: Mycobacterium tuberculosis; experiment: Antibacterial activity against Mycobacterium tuberculosis H37Rv assessed as bacterial growth inhibition cultured in GAST medium measured after 14 days by absorbance based assay; assay type: functional; settings: 336 h, time 14 day
[4] = tested on: Mycobacterium tuberculosis; experiment: Antibacterial activity against Mycobacterium tuberculosis H37Rv assessed as bacterial growth inhibition cultured in 7H9 medium measured after 14 days by absorbance based assay; assay type: functional; settings: 336 h, time 14 day
[5] = Inhibition of beta-lactamase TEM-1 (unknown origin) using nitrocefin as substrate preincubated for 5 mins followed by substrate addition measured after 1 to 5 mins by colorimetry; set-up: species or system Bacteria
[6] = Inhibition of beta-lactamase KPC-2 (unknown origin) using nitrocefin as substrate preincubated for 5 mins followed by substrate addition measured after 1 to 5 mins by colorimetry; set-up: species or system Bacteria
[7] = Inhibition of beta-lactamase OXA-24 (unknown origin) using nitrocefin as substrate preincubated for 5 mins followed by substrate addition measured after 1 to 5 mins in presence of KHCO3 by colorimetry; set-up: species or system Bacteria
[8] = Inhibition of beta-lactamase CTX-M-15 (unknown origin) using nitrocefin as substrate preincubated for 5 mins followed by substrate addition measured after 1 to 5 mins by colorimetry; set-up: species or system Bacteria
[9] = Inhibition of beta-lactamase P99 (unknown origin) using nitrocefin as substrate preincubated for 5 mins followed by substrate addition measured after 1 to 5 mins by colorimetry; set-up: species or system Bacteria
[10] = biological target: T1, 3',5'-cyclic-AMP phosphodiesterase 4B (Homo sapiens, UniProt Q07343); experiment: Displacement of […] from full-length recombinant human PDE4B2 catalytic domain by fluorescence polarisation assay
T1 sequence (Q07343 whole entry, the tested form may be a part): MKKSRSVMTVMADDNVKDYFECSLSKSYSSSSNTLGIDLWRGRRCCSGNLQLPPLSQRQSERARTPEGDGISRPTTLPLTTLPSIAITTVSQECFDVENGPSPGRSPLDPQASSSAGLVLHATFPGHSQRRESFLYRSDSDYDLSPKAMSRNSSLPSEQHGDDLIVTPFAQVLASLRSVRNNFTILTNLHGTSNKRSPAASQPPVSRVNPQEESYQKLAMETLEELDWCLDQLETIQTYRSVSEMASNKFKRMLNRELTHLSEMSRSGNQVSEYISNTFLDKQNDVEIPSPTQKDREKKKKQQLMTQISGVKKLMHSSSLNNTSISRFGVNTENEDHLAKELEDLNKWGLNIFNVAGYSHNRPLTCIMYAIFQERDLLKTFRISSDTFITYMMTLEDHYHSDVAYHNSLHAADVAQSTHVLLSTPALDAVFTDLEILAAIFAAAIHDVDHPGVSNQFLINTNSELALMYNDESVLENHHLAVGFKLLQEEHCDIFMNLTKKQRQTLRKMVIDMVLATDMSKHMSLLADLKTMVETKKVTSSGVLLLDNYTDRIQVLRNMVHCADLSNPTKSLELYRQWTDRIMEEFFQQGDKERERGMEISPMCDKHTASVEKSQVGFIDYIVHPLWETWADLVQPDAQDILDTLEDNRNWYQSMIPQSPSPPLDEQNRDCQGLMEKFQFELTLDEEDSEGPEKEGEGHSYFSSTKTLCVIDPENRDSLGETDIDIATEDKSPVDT

[11] = biological target: T1, 3',5'-cyclic-AMP phosphodiesterase 4B; experiment: Displacement of […] from full-length recombinant human PDE4B1 by fluorescence polarisation assay
[12] = biological target: 3',5'-cyclic-AMP phosphodiesterase 4C (Homo sapiens, UniProt Q08493); experiment: Displacement of […] from full-length recombinant human PDE4C1 by fluorescence polarisation assay
Sequence of 3',5'-cyclic-AMP phosphodiesterase 4C (Q08493 whole entry): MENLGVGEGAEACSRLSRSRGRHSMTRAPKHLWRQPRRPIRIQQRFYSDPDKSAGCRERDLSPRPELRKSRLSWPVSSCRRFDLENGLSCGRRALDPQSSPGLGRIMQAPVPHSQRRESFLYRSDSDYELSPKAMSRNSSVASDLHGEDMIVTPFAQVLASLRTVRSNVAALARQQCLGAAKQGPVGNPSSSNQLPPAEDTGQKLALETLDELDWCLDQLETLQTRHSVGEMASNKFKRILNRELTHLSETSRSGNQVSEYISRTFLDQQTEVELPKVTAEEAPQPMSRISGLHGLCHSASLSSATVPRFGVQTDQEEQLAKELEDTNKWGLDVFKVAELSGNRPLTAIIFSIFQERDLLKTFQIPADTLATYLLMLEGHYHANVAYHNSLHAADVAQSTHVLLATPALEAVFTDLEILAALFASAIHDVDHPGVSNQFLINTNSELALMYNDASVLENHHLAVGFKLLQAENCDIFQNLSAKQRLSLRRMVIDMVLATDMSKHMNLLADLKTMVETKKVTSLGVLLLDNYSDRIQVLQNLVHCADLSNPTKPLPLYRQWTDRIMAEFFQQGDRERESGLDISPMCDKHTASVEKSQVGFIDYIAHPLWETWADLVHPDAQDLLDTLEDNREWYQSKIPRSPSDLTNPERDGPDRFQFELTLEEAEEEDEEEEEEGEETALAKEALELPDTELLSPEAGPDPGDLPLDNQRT

[13] = biological target: 3',5'-cyclic-AMP phosphodiesterase 4D (Homo sapiens, UniProt Q08499); experiment: Displacement of […] from full-length recombinant human PDE4D7 by fluorescence polarisation assay
Sequence of 3',5'-cyclic-AMP phosphodiesterase 4D (Q08499 whole entry): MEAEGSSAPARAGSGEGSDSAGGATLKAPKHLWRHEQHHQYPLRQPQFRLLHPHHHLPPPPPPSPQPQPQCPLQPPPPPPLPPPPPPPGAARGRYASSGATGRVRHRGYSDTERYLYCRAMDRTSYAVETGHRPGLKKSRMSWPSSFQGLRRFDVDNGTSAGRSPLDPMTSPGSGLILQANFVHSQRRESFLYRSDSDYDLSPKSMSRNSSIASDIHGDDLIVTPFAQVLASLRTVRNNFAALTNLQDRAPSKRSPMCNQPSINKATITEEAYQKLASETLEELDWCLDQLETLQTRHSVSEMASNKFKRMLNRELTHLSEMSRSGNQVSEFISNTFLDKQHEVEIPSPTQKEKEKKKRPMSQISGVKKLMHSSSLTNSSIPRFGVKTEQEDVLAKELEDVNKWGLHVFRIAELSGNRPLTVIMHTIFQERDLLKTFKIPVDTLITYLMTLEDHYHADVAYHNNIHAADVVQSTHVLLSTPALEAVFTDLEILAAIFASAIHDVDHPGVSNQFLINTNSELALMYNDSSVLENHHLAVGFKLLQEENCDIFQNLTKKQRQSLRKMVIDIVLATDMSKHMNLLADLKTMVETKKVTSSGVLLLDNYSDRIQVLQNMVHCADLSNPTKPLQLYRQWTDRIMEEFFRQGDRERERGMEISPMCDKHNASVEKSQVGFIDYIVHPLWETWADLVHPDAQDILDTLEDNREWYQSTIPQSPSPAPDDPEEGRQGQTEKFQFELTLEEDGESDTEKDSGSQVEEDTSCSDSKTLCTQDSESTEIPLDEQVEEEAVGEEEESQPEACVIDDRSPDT

[14] = biological target: T1, 3',5'-cyclic-AMP phosphodiesterase 4B; experiment: Displacement of […] from full-length recombinant human PDE4B2 by fluorescence polarisation assay
Onchocerca volvulus = experiment: Antiparasitic activity against third stage larvae of Onchocerca volvulus assessed as parasite growth inhibition incubated for 6 days by inverted microscopy; assay type: functional, organism-based; settings: 144 h
[15] = Bioavailability in Sprague-Dawley rat […] measured upto 7 hrs by LC/MS analysis; assay type: ADME, organism-based; settings: in vivo
[16] = Half life in Sprague-Dawley rat at 1 mg/kg, po or 1 mg/kg, iv measured upto 7 hrs by LC/MS analysis; assay type: ADME, organism-based; settings: in vivo
[17] = Tmax in Sprague-Dawley rat at 1 mg/kg, po or 1 mg/kg, iv measured upto 7 hrs by LC/MS analysis; assay type: ADME, organism-based; settings: in vivo
[18] = Cmax in Sprague-Dawley rat at 1 mg/kg, po or 1 mg/kg, iv measured upto 7 hrs by LC/MS analysis; assay type: ADME, organism-based; set-up: time < 7 hrs, dose 1 mg/kg, route po; settings: in vivo
[19] = biological target: Cyclin-dependent kinase 2 (Homo sapiens, UniProt P24941); experiment: Inhibition of CDK2 (unknown origin) using peptide substrate in presence of ATP
[20] = AUC in Sprague-Dawley rat at 1 mg/kg, po measured upto 7 hrs by LC/MS analysis; assay type: ADME, organism-based; set-up: dose 1 mg/kg, time < 7 hrs, route po; settings: in vivo
Klebsiella aerogenes = experiment: Antibacterial activity against Enterobacter aerogenes ATCC 13048 assessed as bacterial growth inhibition at 10 mg/ml by hollow agar method; assay type: functional; settings: read-out: IZ
Plasmodium falciparum [21] = experiment: Antimalarial activity against multidrug-resistant Plasmodium falciparum W2 assessed as parasite growth inhibition incubated for 48 hrs by FACS analysis; assay type: functional, organism-based; settings: W2, 48 h
[22] = biological target: cAMP and cAMP-inhibited cGMP 3',5'-cyclic phosphodiesterase 10A (Homo sapiens, UniProt Q9Y233); experiment: Inhibition of PDE10A (unknown origin)
Sequence of cAMP and cAMP-inhibited cGMP 3',5'-cyclic phosphodiesterase 10A (Q9Y233 whole entry): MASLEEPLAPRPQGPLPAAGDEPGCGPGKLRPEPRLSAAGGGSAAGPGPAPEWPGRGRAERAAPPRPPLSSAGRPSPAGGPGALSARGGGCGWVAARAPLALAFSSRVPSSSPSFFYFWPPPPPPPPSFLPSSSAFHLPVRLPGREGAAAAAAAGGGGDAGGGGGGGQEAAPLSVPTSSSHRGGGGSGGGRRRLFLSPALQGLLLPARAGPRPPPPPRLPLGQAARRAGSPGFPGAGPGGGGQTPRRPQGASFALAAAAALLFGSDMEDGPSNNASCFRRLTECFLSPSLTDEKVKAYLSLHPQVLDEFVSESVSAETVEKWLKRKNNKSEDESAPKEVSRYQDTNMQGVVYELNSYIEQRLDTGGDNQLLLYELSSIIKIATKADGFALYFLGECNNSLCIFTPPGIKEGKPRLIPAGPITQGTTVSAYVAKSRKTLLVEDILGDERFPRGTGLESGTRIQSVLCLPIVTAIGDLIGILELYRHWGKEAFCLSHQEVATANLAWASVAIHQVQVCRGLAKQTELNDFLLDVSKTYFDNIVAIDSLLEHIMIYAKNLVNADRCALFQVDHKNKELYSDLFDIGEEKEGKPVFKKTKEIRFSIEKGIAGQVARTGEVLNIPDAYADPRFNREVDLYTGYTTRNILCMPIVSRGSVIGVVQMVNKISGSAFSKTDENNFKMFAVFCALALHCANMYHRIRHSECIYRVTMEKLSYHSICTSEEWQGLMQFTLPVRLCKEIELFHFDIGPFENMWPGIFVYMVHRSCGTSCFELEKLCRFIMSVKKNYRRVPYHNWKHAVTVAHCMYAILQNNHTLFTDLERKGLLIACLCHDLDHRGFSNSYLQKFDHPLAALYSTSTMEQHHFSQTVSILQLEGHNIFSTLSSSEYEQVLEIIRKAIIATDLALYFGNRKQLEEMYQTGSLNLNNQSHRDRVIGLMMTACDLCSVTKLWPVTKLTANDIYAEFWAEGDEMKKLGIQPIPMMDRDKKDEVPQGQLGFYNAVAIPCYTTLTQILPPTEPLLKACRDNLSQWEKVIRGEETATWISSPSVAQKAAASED

Carbonic anhydrase 1 = Carbonic anhydrase 1 (Homo sapiens, UniProt P00915); experiment: Binding affinity to human CA-I assessed as inhibition constant preincubated for 15 mins by bromothymol blue staining based assay
Sequence of Carbonic anhydrase 1 (P00915 whole entry): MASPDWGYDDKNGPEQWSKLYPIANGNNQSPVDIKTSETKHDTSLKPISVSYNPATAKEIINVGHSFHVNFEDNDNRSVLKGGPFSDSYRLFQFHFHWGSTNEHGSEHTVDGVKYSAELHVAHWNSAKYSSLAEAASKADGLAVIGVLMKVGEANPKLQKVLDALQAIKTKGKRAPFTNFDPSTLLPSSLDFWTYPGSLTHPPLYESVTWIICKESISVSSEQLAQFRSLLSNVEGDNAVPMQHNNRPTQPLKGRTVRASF

[23] = Binding affinity to Candida glabrata beta-carbonic anhydrase assessed as inhibition constant preincubated for 15 mins by bromothymol blue staining based assay; set-up: species or system Nakaseomyces glabratus
Carbonic anhydrase 2 = Carbonic anhydrase 2 (Homo sapiens, UniProt P00918); experiment: Binding affinity to human CA-II assessed as inhibition constant preincubated for 15 mins by bromothymol blue staining based assay
[24] = Binding affinity to Cryptococcus neoformans beta-carbonic anhydrase assessed as inhibition constant preincubated for 15 mins by bromothymol blue staining based assay
Escherichia coli [25] = experiment: Antibacterial activity against Escherichia coli expressing tolC assessed as bacterial growth inhibition by broth microdilution method; assay type: functional
[26] = tested on: Staphylococcus epidermidis; experiment: Antibacterial activity against Staphylococcus epidermidis assessed as bacterial growth inhibition by broth microdilution method; assay type: functional
Staphylococcus aureus = experiment: Antibacterial activity against healthcare-associated Methicillin-resistant Staphylococcus aureus assessed as bacterial growth inhibition; assay type: functional
[27] = Lipophilicity, log P of the compound; assay type: physicochemical; settings: octanol/water
[28] = Bioavailability in monkey; assay type: ADME, organism-based, Macaca mulatta; settings: rhesus monkey, in vivo
[29] = Inhibition of Escherichia coli LeuRS using Escherichia coli tRNA as substrate incubated for 20 mins in presence of 14C-leucine/ATP
Escherichia coli [30] = experiment: Antibacterial activity against Escherichia coli ATCC 25922 assessed as bacterial growth inhibition; assay type: functional
THP-1 = experiment: Antiinflammatory activity against human THP-1 cells assessed as inhibition of LPS-stimulated IL-1beta release measured after 1 hr by ELISA; assay type: functional, cell-based; settings: THP-1, 1 h
[31] = tested on: Mycobacterium tuberculosis; experiment: Antibacterial activity against Mycobacterium tuberculosis assessed as bacterial growth inhibition by broth microdilution method; assay type: functional
Trypanosoma brucei [32] = experiment: Antiparasitic activity against Trypanosoma brucei 427 assessed as parasite growth inhibition incubated for 24 hrs by fluorescence based assay; assay type: functional, organism-based; settings: Trypanosoma brucei, 427, 24 h
Trypanosoma brucei [33] = experiment: Antitrypanosomal activity against Trypanosoma brucei assessed as parasite growth inhibition; assay type: functional, organism-based
Aspergillus niger [34] = experiment: Antifungal activity against Aspergillus niger assessed as fungal growth inhibition; assay type: functional
Candida albicans = experiment: Antifungal activity against Candida albicans assessed as fungal growth inhibition incubated for 48 hrs by agar diffusion method; assay type: functional
Aspergillus niger [35] = experiment: Antifungal activity against Aspergillus niger assessed as fungal growth inhibition incubated for 48 hrs by agar diffusion method; assay type: functional
Penicillium ochrochloron = experiment: Antifungal activity against Penicillium ochrochloron assessed as fungal growth inhibition incubated for 72 hrs by agar diffusion method; assay type: functional
[36] = tested on: Mycobacterium tuberculosis; experiment: Antibacterial activity against Mycobacterium tuberculosis H37Rv ATCC 25618 assessed as bacterial growth inhibition cultured in solid media incubated for 3 to 4 weeks; assay type: functional; settings: time 3-4 weeks
HepG2 = experiment: Cytotoxicity against human HepG2 cells assessed as cell growth inhibition incubated for 2 days by Cell Titer Glo assay; assay type: functional, cell-based; settings: HepG2, 48 h
[37] = tested on: Mycobacterium tuberculosis; experiment: Antibacterial activity against Mycobacterium tuberculosis H37Rv ATCC 25618 assessed as bacterial growth inhibition cultured in liquid media for 5 days by absorbance based assay; assay type: functional; settings: H37Rv ATCC 25618, 120 h, time 5 day
[38] = tested on: Mycobacterium tuberculosis; experiment: Antibacterial activity against Mycobacterium tuberculosis H37Rv ATCC 25618 infected in human THP-1 cells assessed as bacterial growth inhibition at MOI of 1 incubated for 3 days by Cell Titer Glo assay; assay type: functional, organism-based; settings: H37Rv ATCC 25618, THP-1, 72 h
[39] = Half life in human; assay type: ADME
[40] = Dissociation constant, pKa of the compound; assay type: physicochemical
Hepatitis C virus = experiment: Antiviral activity against HCV GT1a316Y assessed as reduction in viral replication; assay type: functional, organism-based, Hepacivirus hominis

Cc1c(Oc2cnc(C(=O)N3CC(C)(O)C3)cn2)ccc2c1B(O)OC2
IC50 (Plasmodium falciparum [1]): 43 µM | IC50 (Plasmodium falciparum [2]): 33 µM

CC(C)[C@@H]1[NH2+][B-](c2ccc(F)cc2F)(c2ccc(F)cc2F)OC1=O
IC50 (LN-229): 49 µM

Nc1cc2c(cc1Br)COB2O
MIC99 [3]: 1.9 µM (≈ 0.433 µg/mL) | MIC99 [4]: 7.8 µM (≈ 1.78 µg/mL)

Cc1c(Oc2nc(N)ns2)cc2c(c1C)[C@@H](CC(=O)O)OB2O
IC50 [5]: < 0.005 µM | IC50 [6]: 0.026 µM | IC50 [7]: 0.088 µM | IC50 [8]: < 0.005 µM | IC50 [9]: 0.012 µM

CC(C)OCCOc1ncc(Oc2ccc3c(c2)B(O)OC3)cc1C#N
IC50 [10]: 0.0021 µM | IC50 [11]: 0.0021 µM | IC50 [12]: 0.0021 µM | IC50 [13]: 0.0021 µM | IC50 [14]: 0.0021 µM

COC(=O)Nc1nc2cc(C(=O)NCc3ccc4c(c3)B(O)OC4(C)C)ccc2[nH]1
IC50 (Onchocerca volvulus): 0.3 µM

O=C(Cc1ccc(B2C=CC=CN2)cc1)Nc1cc(C2CC2)[nH]n1
bioavailability [15]: 29.3% | half-life [16]: 11.6 h | Tmax [17]: 1.5 h | Cmax [18]: 746 nM | IC50 [19]: 0.087 µM | AUC at 7 h [20]: 0.613 µM·h

CCN(CC)c1ccc(B2Oc3ccc(C(C)(C)C)cc3O2)cc1
zone of inhibition at 10000 µg/mL (Klebsiella aerogenes): 30.3 mm

CCOc1ccc(Br)c2c1B(O)O[C@@H]2CC
IC50 (Plasmodium falciparum [21]): 0.49 µM

CN(C(=O)c1nc(-c2cccnc2)cs1)c1ccc(OCB2C=Cc3ccccc3N2)cc1
IC50 [22]: 0.33 µM

O=[N+]([O-])c1ccc(NC(=S)Nc2ccc3c(c2)B(O)OC3)cc1
Ki (Carbonic anhydrase 1): 6.35 µM | Ki [23]: 0.089 µM | Ki (Carbonic anhydrase 2): 0.504 µM | Ki [24]: 0.088 µM

CC[C@H]1OC(=O)[C@H](C)[C@@H](O[C@H]2C[C@@](C)(OC)[C@@H](O)[C@H](C)O2)[C@H](C)[C@@H](O[C@@H]2O[C@H](C)C[C@H](N(C)C)[C@H]2O)[C@](C)(OC)C[C@@H](C)/C(=N\OCC(=O)NC[C@H]2OB(O)c3ccccc32)[C@H](C)[C@@H](O)[C@]1(C)O
MIC (Escherichia coli [25]): 8 µg/mL (≈ 8.28 µM) | MIC [26]: 0.5 µg/mL (≈ 0.518 µM)

OCc1ccc2c(c1)C=CB(c1ccc(O)c(C34CC5CC(CC(C5)C3)C4)c1)N2
MIC (Staphylococcus aureus): 64 µM (≈ 24.7 µg/mL) | logP [27]: 0.12

Cl.NC[C@H]1OB(O)c2c1ccc1c2OCO1
bioavailability [28]: 100% | IC50 [29]: 0.38 µM | MIC (Escherichia coli [30]): 1 µg/mL

CC(=O)C1=C(C(Cl)(Cl)Cl)N[B-](c2ccccc2)(c2ccccc2)[O+]=C1C
IC50 (THP-1): 0.574 µM

O=C(/C=C/c1ccc2c(c1)OCO2)Nc1ccc2c(c1)B(O)OC2
MIC99 [31]: 40.7 µM (≈ 13.2 µg/mL) | IC50 (Trypanosoma brucei [32]): 0.086 µM | IC50 (Trypanosoma brucei [33]): 0.1 µM

OB1OC(N2CCN(c3ccc(F)cc3)CC2)c2ccccc21 (stereo unspecified)
MIC (Aspergillus niger [34]): 62.5 µg/mL (≈ 200 µM)

OB1OC(N2CCN(C3OB(O)c4cccc(F)c43)CC2)c2c(F)cccc21 (stereo unspecified)
inhibition zone (IZ) (Candida albicans): 35 mm | inhibition zone (IZ) (Aspergillus niger [35]): 41 mm | inhibition zone (IZ) (Penicillium ochrochloron): 41 mm

Cc1c(OCc2ccccc2)ccc2c1B(O)OC2
MIC [36]: 0.8 µM (≈ 0.203 µg/mL) | IC50 (HepG2): > 100 µM | MIC [37]: 2 µM (≈ 0.508 µg/mL) | IC50 [38]: 3.6 µM

CNC(=O)c1c(-c2ccc(F)cc2)oc2cc(N(c3cc(Cl)c4c(c3)COB4O)S(C)(=O)=O)c(C3CC3)cc12
half-life [39]: 60 h | pKa [40]: 5.4 | EC50 (Hepatitis C virus): 0.032 µM
